The text below walks through data of PMC6628435, “Chemical Synthesis, Proper Folding, Nav Channel Selectivity Profile and Analgesic Properties of the Spider Peptide Phlotoxin 1” (Toxins, 2019).

Bridge positions count the residues as written; N and C are the ends. Peptide text beside a SMILES is read from it.

Test [1] addresses T1, human Nav1.7 (Homo sapiens, UniProt Q15858).
T1 construct: expressed in transfected cells
Put plainly: Automated patch-clamp (Nanion SyncroPatch 384PE) on CHO cells expressing human Nav1.7. It counts as cell-based. To be noted: for block of Nav1.7 inward current: 100 nM toxin, end of application (about 12-13 min), CHO hNav1.7; for Hill value: same dose-response fit as IC50, CHO hNav1.7 automated patch-clamp. The text has this:
We used a CHO mammalian cell line expressing the human Nav1.7 instead of Xenopus oocytes for the pharmacological evaluation. […] 100-ms pulses from −100 mV to −10 mV were applied at a frequency of 0.2 Hz and various concentrations of PhlTx1 were applied to the cells. […] Using a manual patch clamp, which is better suited to investigate current recovery from block than an automated patch clamp that requires several washing steps, we investigated the reversibility properties of a PhlTx1 block.
CHO cells stably expressing the human Nav1.7 cells were cultured in Dulbecco’s Modified Eagle’s Medium (DMEM) supplemented with 10% fetal calf serum, 1 mM pyruvic acid, 4 mM glutamine, 10 IU/mL penicillin and 10 μg/mL streptomycin (Gibco, Grand Island, NY, USA), and incubated at 37 °C in a 5% CO2 atmosphere. For automated patch-clamp recordings, cells were detached with trypsin and floating single cells were diluted (~300,000 cells/mL) in medium contained (in mM): 4 KCl, 140 NaCl, 5 Glucose, 10 HEPES (pH 7.4, osmolarity 290 mOsm).
Chips with single-hole and high-resistance (~6–7 MΩ) were used for CHO cell recordings. Voltage pulses and whole-cell recordings were achieved using the PatchControl384 v1.5.2 software (Nanion, Munich, Germany) and the Biomek v1.0 interface (Beckman Coulter). Prior recordings, dissociated cells were shaken at 60 RPM in a cell hotel reservoir at 10 °C. After cell catching, sealing, whole-cell formation, liquid application, recording, and data acquisition were all performed sequentially and automatically. […] Whole-cell experiments were done at −100 mV holding potential and at room temperature (18–22 °C), while currents triggered at −10 mV test potential were sampled at 20 kHz. Stimulation frequency was set at 0.2 Hz. Toxins were prepared at various concentrations in the extracellular solution, itself supplemented with 0.3% BSA. […] Compound solutions were diluted 3 times in the patch-clamp recording well by adding 30 μL to 60 μL external solution to reach the final reported concentration and the test volume of 90 μL. Percentages of current inhibitions were measured at the end of a 12- to 15-min application time (12-min for fast blocking toxins; 15-min for slow blocking ones). A single concentration of peptide was tested on each cell for building the full-inhibition curves.

Test [2] concerns human Nav1.7 channel. Conditions: ref [45]; cited from earlier work.
In test [3] the test system is formalin-induced spontaneous pain behavior. Put plainly: Formalin pain test in mice after intrathecal injection. Format: in vivo, C57BL/6J mice. Conditions: mouse, in vivo.

T1 sequence (Q15858 whole entry): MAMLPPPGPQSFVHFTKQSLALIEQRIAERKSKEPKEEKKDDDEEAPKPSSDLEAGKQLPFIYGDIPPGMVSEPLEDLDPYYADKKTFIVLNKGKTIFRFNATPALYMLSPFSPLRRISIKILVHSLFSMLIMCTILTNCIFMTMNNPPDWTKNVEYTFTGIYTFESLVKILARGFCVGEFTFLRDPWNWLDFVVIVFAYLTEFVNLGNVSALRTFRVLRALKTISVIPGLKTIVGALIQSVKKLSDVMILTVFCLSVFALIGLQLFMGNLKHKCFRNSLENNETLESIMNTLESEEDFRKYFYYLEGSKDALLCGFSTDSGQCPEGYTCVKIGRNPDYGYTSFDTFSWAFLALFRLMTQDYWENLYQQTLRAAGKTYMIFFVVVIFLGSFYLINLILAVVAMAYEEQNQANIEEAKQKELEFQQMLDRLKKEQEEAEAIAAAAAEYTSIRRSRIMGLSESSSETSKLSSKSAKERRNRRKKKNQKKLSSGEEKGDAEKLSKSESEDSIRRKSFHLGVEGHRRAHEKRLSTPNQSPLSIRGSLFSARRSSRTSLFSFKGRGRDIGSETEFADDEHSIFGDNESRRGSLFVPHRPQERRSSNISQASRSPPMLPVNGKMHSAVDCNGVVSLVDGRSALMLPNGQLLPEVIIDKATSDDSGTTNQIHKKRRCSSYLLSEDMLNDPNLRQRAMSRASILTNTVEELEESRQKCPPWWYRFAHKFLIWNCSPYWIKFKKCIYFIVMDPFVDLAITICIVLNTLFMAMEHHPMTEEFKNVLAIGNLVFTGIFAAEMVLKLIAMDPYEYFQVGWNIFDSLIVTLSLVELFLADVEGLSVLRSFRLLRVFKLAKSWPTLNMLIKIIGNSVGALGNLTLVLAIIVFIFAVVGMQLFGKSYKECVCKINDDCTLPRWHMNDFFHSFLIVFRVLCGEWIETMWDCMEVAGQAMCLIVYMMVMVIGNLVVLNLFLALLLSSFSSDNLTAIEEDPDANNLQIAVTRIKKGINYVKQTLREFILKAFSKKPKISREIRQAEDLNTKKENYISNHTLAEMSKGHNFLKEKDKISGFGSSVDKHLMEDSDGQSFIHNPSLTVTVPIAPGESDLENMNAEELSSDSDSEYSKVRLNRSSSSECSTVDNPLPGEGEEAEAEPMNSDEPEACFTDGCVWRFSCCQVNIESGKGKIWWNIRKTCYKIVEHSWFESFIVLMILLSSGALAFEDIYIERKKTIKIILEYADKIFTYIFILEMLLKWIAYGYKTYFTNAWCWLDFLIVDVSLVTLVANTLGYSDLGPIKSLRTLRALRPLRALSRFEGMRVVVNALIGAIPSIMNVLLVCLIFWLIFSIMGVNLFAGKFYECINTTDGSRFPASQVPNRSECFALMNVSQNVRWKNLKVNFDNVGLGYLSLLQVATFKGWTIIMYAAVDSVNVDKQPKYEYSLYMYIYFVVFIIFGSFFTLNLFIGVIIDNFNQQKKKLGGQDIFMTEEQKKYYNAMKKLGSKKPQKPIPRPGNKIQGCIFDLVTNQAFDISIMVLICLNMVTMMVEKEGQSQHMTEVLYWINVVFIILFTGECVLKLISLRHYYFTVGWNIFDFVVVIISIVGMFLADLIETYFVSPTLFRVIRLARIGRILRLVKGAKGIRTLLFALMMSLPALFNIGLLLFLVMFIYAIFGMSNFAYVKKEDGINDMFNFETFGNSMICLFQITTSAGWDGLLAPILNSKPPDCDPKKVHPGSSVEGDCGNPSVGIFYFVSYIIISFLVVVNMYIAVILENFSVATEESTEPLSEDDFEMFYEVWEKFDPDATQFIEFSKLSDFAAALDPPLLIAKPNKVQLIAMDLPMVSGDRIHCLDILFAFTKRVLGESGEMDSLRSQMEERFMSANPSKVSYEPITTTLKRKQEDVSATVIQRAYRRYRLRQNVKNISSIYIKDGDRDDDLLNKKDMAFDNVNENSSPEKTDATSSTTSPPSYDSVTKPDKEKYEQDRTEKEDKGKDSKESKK

For the compound `CC[C@H](C)[C@@H]1NC(=O)[C@H](CC(N)=O)NC(=O)[C@H](CCCNC(=N)N)NC(=O)[C@@H]2CCCN2C(=O)[C@H](Cc2c[nH]c3ccccc23)NC(=O)[C@H](CCCCN)NC(=O)[C@H](CO)NC(=O)[C@H](CCCCN)NC(=O)[C@@H]2CSSC[C@@H]3NC(=O)[C@H](CCCCN)NC(=O)CNC(=O)[C@H](Cc4c[nH]c5ccccc45)NC(=O)[C@H](Cc4ccccc4)NC(=O)[C@H](CCCNC(=N)N)NC(=O)[C@H](C(C)C)NC(=O)[C@@H](NC(=O)[C@@H](N)CC(=O)O)CSSC[C@H](NC(=O)[C@H](CSSC[C@@H](C(=O)N[C@H](C(=O)N[C@@H](Cc4c[nH]c5ccccc45)C(=O)N[C@@H](CC(=O)O)C(=O)NCC(=O)N[C@@H](CO)C(=O)N[C@H](C(=O)O)C(C)C)C(C)C)NC1=O)NC(=O)[C@H](CC(=O)O)NC(=O)[C@H](CO)NC(=O)[C@H]([C@@H](C)O)NC(=O)[C@H](CCC(N)=O)NC(=O)[C@H](CO)NC3=O)C(=O)N1CCC[C@H]1C(=O)N[C@@H](Cc1c[nH]cn1)C(=O)N[C@@H](CC(C)C)C(=O)N[C@@H](C)C(=O)N2` [GrTx1], in test [1], the IC50 was 15.3 nM and the “block of Nav1.7 inward current” value is on record as “about 50%”. With `CC[C@H](C)[C@H](NC(=O)[C@H](CCCCN)NC(=O)[C@H](CCCCN)NC(=O)[C@H](CCCCN)NC(=O)[C@@H]1CSSC[C@@H]2NC(=O)[C@H](CCCCN)NC(=O)[C@H](CCCNC(=N)N)NC(=O)[C@H](CCC(=O)O)NC(=O)[C@H](CCC(=O)O)NC(=O)[C@H](CC(=O)O)NC(=O)[C@@H]3CSSC[C@H](NC(=O)[C@H](C(C)C)NC(=O)[C@H](CC(C)C)NC(=O)CNC(=O)[C@H](CCC(=O)O)NC(=O)[C@H](CSSC[C@H](NC(=O)[C@@H](N)Cc4ccc(O)cc4)C(=O)N[C@@H](CCC(N)=O)C(=O)N[C@@H](CCCCN)C(=O)N[C@@H](Cc4c[nH]c5ccccc45)C(=O)N[C@@H](CCSC)C(=O)N[C@@H](Cc4c[nH]c5ccccc45)C(=O)N[C@@H]([C@@H](C)O)C(=O)N3)NC2=O)C(=O)N[C@@H](CCCNC(=N)N)C(=O)N[C@@H](CC(C)C)C(=O)N[C@@H](Cc2c[nH]c3ccccc23)C(=O)N1)C(=O)N[C@@H](CCC(=O)O)C(=O)N[C@@H](Cc1c[nH]c2ccccc12)C(=O)O` [GsAFII] (H-YCQKWMWTCDEERKCCEGLVCRLWCKKKIEW-OH; disulfide 2-16, 9-21, 15-25), in test [1], the IC50 came out at 13.6 nM.

`CC[C@H](C)[C@H](NC(=O)[C@H](CCC(=O)O)NC(=O)[C@H](Cc1ccc(O)cc1)NC(=O)[C@H](CCCCN)NC(=O)[C@@H]1CSSC[C@@H]2NC(=O)[C@H](CCC(N)=O)NC(=O)[C@H](CC(=O)O)NC(=O)[C@H](CC(N)=O)NC(=O)[C@H](CO)NC(=O)[C@@H]3CCCN3C(=O)[C@H](CC(N)=O)NC(=O)[C@@H]3CSSC[C@H](NC(=O)[C@H](C(C)C)NC(=O)[C@H](CC(C)C)NC(=O)[C@H](CC(N)=O)NC(=O)[C@H](CO)NC(=O)[C@H](CO)NC(=O)[C@H](CCCCN)NC(=O)[C@H](CSSC[C@H](NC(=O)[C@@H](N)CCC(=O)O)C(=O)N[C@@H](CC(C)C)C(=O)NCC(=O)N[C@@H](Cc4ccccc4)C(=O)NCC(=O)N[C@@H](CCCCN)C(=O)NCC(=O)N3)NC2=O)C(=O)N[C@@H](CO)C(=O)N[C@@H](CCCNC(=N)N)C(=O)N[C@@H](CCCCN)C(=O)N[C@@H](Cc2c[nH]cn2)C(=O)N[C@@H](CCCNC(=N)N)C(=O)N[C@@H](Cc2c[nH]c3ccccc23)C(=O)N1)C(N)=O` [HnTx-IV]: the concentration for half-maximal inhibition (IC50) in test [1] came out at 4.3 nM. Turning to `CC(C)C[C@H](NC(=O)[C@H](CCCCN)NC(=O)[C@H](Cc1c[nH]c2ccccc12)NC(=O)[C@H](CCCCN)NC(=O)[C@@H]1CSSC[C@@H]2NC(=O)[C@H](CCC(=O)O)NC(=O)[C@H](CC(N)=O)NC(=O)[C@H](CCCCN)NC(=O)CNC(=O)[C@@H]3CCCN3C(=O)[C@H]([C@@H](C)O)NC(=O)[C@@H]3CSSC[C@H](NC(=O)[C@H](C(C)C)NC(=O)[C@H](CCCNC(=N)N)NC(=O)[C@H](CC(N)=O)NC(=O)[C@@H]4CCCN4C(=O)[C@H](CSSC[C@H](NC(=O)[C@H](C)N)C(=O)N[C@@H](CCCCN)C(=O)NCC(=O)N[C@@H](C(C)C)C(=O)N[C@@H](Cc4ccccc4)C(=O)N[C@@H](CC(=O)O)C(=O)N[C@@H](C)C(=O)N3)NC2=O)C(=O)N[C@@H](CO)C(=O)N[C@@H](CC(=O)O)C(=O)N[C@@H](CCCCN)C(=O)N[C@@H](Cc2c[nH]cn2)C(=O)N[C@@H](CCCCN)C(=O)N[C@@H](Cc2c[nH]c3ccccc23)C(=O)N1)C(=O)O` [HwTx-I] (H-ACKGVFDACTPGKNECCPNRVCSDKHKWCKWKL-OH; disulfide 2-17, 9-22, 16-29; N-terminus and C-terminus assumed), in test [1], the “block of Nav1.7 inward current” value is “incomplete block” and the Hill value is listed as 2.3. In test [1] (100 nM, mono-exponential fit (PhlTx1 n = 8)), the “time constant of inhibition (τ)” value is 492 s. For `CSCC[C@@H]1NC(=O)[C@H](Cc2ccc(O)cc2)NC(=O)[C@H](CCCNC(=N)N)NC(=O)[C@@H](NC(=O)[C@@H](N)CC(=O)O)CSSC[C@@H]2NC(=O)[C@@H]3CSSC[C@@H](C(=O)N[C@@H](C)C(=O)N[C@@H](Cc4c[nH]c5ccccc45)C(=O)N[C@@H](CC(=O)O)C(=O)N[C@@H](Cc4ccccc4)C(=O)N[C@H](C(=O)N[C@@H](Cc4ccccc4)C(=O)N[C@H](C(=O)O)[C@@H](C)O)[C@@H](C)O)NC(=O)[C@H](Cc4ccc(O)cc4)NC(=O)[C@H](CCCCN)NC(=O)[C@H](CCSC)NC(=O)[C@H](CCCCN)NC(=O)[C@H](CCCNC(=N)N)NC(=O)[C@H](CCCCN)NC(=O)[C@H](CSSC[C@H](NC(=O)[C@H](CC(=O)O)NC(=O)CNC(=O)[C@H](Cc4ccccc4)NC1=O)C(=O)N[C@@H](CCC(=O)O)C(=O)N[C@@H](CCCCN)C(=O)N[C@@H](CC(=O)O)C(=O)N[C@@H](CCC(=O)O)C(=O)N[C@@H](CC(=O)O)C(=O)N3)NC(=O)CNC(=O)[C@H](CC(C)C)NC(=O)[C@H](Cc1c[nH]cn1)NC(=O)[C@H](CCCCN)NC2=O` [Pn3a], in test [1], the “block of Nav1.7 inward current” value is listed as “fully insensitive” and the Hill value amounted to 3. The IC50 in test [2] was 0.9 nM. For `CC(C)C[C@@H]1NC(=O)[C@H](Cc2c[nH]c3ccccc23)NC(=O)[C@H](Cc2ccc(O)cc2)NC(=O)[C@H](CCCNC(=N)N)NC(=O)[C@@H](NC(=O)[C@@H](N)CCC(=O)O)CSSC[C@@H]2NC(=O)[C@@H]3CSSC[C@@H](C(=O)N[C@H](C(=O)N[C@@H](Cc4c[nH]c5ccccc45)C(=O)N[C@@H](CC(=O)O)C(=O)NCC(=O)N[C@H](C(=O)N[C@@H](Cc4ccccc4)C(=O)N[C@@H](CO)C(=O)O)[C@@H](C)O)C(C)C)NC(=O)[C@H](Cc4c[nH]c5ccccc45)NC(=O)CNC(=O)[C@H](Cc4c[nH]cn4)NC(=O)[C@H](CCCNC(=N)N)NC(=O)[C@H](CCCNC(=N)N)NC(=O)[C@H](CO)NC(=O)[C@H](CSSC[C@H](NC(=O)CNC(=O)CNC1=O)C(=O)N[C@@H](CO)C(=O)N[C@@H](C)C(=O)NCC(=O)N[C@@H](CCC(N)=O)C(=O)N[C@@H]([C@@H](C)O)C(=O)N3)NC(=O)[C@H](C(C)C)NC(=O)[C@H](CC(C)C)NC(=O)[C@H](Cc1c[nH]cn1)NC(=O)[C@H](CCCCN)NC2=O` [ProTx-I], the IC50 in test [1] amounted to 7.1 nM. Take `CN1CC[C@]23c4c5ccc(O)c4O[C@H]2[C@@H](O)C=C[C@H]3[C@H]1C5` [morphine, reference compound]: in test [3], the “formalin-induced pain behavior (licking), Phase II (inflammation, 10–45 min)” value is 0.
